Tested on: full thickness chondrocytes
Assay: In vitro-formed cartilage on membrane inserts: DNA, GAG and collagen contents
Type: cell-based, calves
Description: Membrane inserts (Millicell-CM®, Millipore Corp., Bedford, Mass., USA) were coated with type II collagen (0.5 mg/ml in 0.1N acetic acid; Sigma Chemical Co., St. Louis, Mo., USA) and dried overnight. The membrane inserts were UV sterilized for 30 minutes and soaked in Ham's F12 for 30 minutes prior to cell culturing.
Cartilage was aseptically excised from the full thickness of metacarpal-phalangeal articular cartilage from 9 to 12 months old calves within 24 hours of death as previously described. For the experiment investigating the response of chondrocytes zonal subpopulations to inorganic polyphosphate, cartilage was excised as the superficial-mid zone (top 70%) and the deep-zone (bottom 30%). Chondrocytes were harvested from the tissue by sequential enzymatic digestion (0.5% protease (Sigma Chemical Co., St. Louis, Mo., USA) for 2 hours followed by 0.1% collagenase (Roche Diagnostics GmbH, Mannheim, Germany) overnight). The cells were then seeded on top of membrane inserts (1×10^6 cells per construct) in Ham's F-12 supplemented with 5% fetal bovine serum (FBS) (HyClone, Logan, Utah, USA) and incubated at 37° C. in an atmosphere characterized by 95% relative humidity and 5% CO2. On day 5, the serum concentration was changed to 20% and supplemented with ascorbic acid (100 μg/ml, Sigma Chemical Co., St. Louis, Mo., USA). At this time, cultures were incubated in the presence or absence of various concentrations of sodium phosphate glasses (inorganic polyphosphate; Sigma Chemical Co., St. Louis, Mo., USA) or sodium phosphate buffer. The concentrations of inorganic polyphosphate utilized for each experiment are calculated based on the phosphate content. Cultures were grown for up to 4 weeks following initiation of the inorganic polyphosphate treatment. […]
In vitro and ex vivo-cultured cartilage tissues were harvested and washed twice in PBS. […] The fluorescence was visualized with a Zeiss Axioplan epifluorescence microscope using a wide pass DAPI filter. […]
Cartilage tissues were digested with papain (Sigma Chemical Co., St. Louis, Mo., USA; 40 μg·ml^−1) in digestion buffer (20 mM ammonium acetate, 1 mM EDTA and 2 mM DTT) for 48 hours at 65° C. […] The DNA content was assessed using the Hoechst 33258 dye (Polysciences Inc., Washington, Pa., USA) binding assay and fluorometry (emission wavelength: 458 nm; excitation wavelength: 365 nm). […]
The proteoglycan and collagen contents of cartilage tissues were also measured from aliquots of the papain digest. The proteoglycan content was estimated by quantifying the amount of sulphated GAG using the dimethylmethylene blue dye (Polysciences Inc., Washington, Pa., USA) binding assay and quantifying the colour spectrophotometrically at 525 nm. […] The collagen content was estimated by quantifying the hydroxyproline. […]

[1] = 1 mM, 2 weeks in culture, normalized to DNA content, mean ± SEM

Structure (SMILES): O=P(O)(O)O [Phosphate, sodium phosphate]
- DNA Content (1 mM, 2 weeks in culture, mean ± SEM): 8.5 ± 0.92 µg
- Collagen Content [1]: 105.3 ± 9.5 % of control
- GAG Content [1]: 112.5 ± 14.8 % of control
- DNA, GAG and collagen contents compared to non-supplemented medium (concentrations equivalent to those used for polyphosphate, 2 weeks): did not significantly alter
